Active and inactive are the calls of the source. The rule behind the calls is not given here. Residues, ends and D or L forms follow the SMILES beside them. *: point of attachment. CH2Cl = ClC*

The target of experiment [1] is T1, Threonine aspartase 1 (Homo sapiens) (UniProt Q9H6P5).
T1 sequence (whole entry): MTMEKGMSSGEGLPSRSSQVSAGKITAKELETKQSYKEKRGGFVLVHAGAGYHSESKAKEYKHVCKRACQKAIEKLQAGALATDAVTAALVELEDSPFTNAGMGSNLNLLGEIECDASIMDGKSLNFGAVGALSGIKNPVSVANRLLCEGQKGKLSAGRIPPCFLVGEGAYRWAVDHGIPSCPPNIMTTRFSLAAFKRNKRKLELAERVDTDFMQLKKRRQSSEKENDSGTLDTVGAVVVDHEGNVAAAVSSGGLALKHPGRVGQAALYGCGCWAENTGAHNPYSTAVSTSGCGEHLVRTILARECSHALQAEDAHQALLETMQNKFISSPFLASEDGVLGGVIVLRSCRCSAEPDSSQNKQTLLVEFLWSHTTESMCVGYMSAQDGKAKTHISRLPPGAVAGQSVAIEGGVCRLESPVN
Briefly: Inhibition of recombinant Taspase1 (unknown origin) at 10 to 1000 uM using [35S]-methionine labeled human MLL1 (2400-2900 residues) as substrate preincubated for 30 mins followed by substrate addition measured after 30 mins by SDS-PAGE based autoradiography.

For a further experiment, the target named is T2, Threonine aspartase 1 (Homo sapiens, UniProt Q9H6P5).
T2 sequence (Q9H6P5 whole entry): T1 sequence (whole entry)
Briefly: Inhibition of recombinant Taspase1 (unknown origin) using [35S]-methionine labeled human MLL1 (2400-2900 residues) as substrate preincubated for 30 mins followed by substrate addition measured after 30 mins by SDS-PAGE based autoradiography.

In experiment [2] the target is T1, Threonine aspartase 1 (Homo sapiens). Briefly: Inhibition of recombinant Taspase1 (unknown origin) up to 0.1 mM using [35S]-methionine labeled human MLL1 (2400-2900 residues) as substrate preincubated for 30 mins followed by substrate addition measured after 30 mins by SDS-PAGE based autoradiography.
For the next experiment, the system named is T47D. Briefly: Growth inhibition of human T47D cells expressing Taspase1. Type of experiment: functional, cell-based.
In a further experiment the test system is BT-549. Briefly: Growth inhibition of human BT549 cells expressing Taspase1. It is filed as functional, cell-based.
Experiment [3] has as its target T1, Threonine aspartase 1 (Homo sapiens). Briefly: Inhibition of recombinant Taspase1 (unknown origin) at 10 uM using [35S]-methionine labeled human MLL1 (2400-2900 residues) as substrate preincubated for 30 mins followed by substrate addition measured after 30 mins by SDS-PAGE based autoradiography.
For a further experiment, the system named is MCF7. Briefly: Growth inhibition of human MCF7 cells expressing Taspase1. Type of experiment: functional, cell-based.
Experiment [4] addresses T1, Threonine aspartase 1 (Homo sapiens). Briefly: Covalent irreversible inhibition of recombinant Taspase1 (unknown origin) at 0.1 mM using [35S]-methionine labeled human MLL1 (2400-2900 residues) as substrate preincubated for 15 to 60 mins followed by substrate addition measured after 30 mins by SDS-PAGE based autoradiography.
The next experiment concerns U-251. Briefly: Growth inhibition of human U251 cells expressing Taspase1. Type of experiment: functional, cell-based.
A further experiment addresses Caspase-8 (Homo sapiens) (UniProt Q14790). Briefly: Inhibition of recombinant caspase8 (unknown origin) at 1 mM using [35S]-methionine labeled p22 BID as substrate preincubated for 30 mins followed by substrate addition measured after 2 hrs by SDS-PAGE based autoradiography.
For experiment [5], the target named is T1, Threonine aspartase 1 (Homo sapiens). Briefly: Inhibition of recombinant Taspase1 (unknown origin) at 1 mM using [35S]-methionine labeled human MLL1 (2400-2900 residues) as substrate preincubated for 30 mins followed by substrate addition measured after 30 mins by SDS-PAGE based autoradiography.
For experiment [6], the system named is MEF. Briefly: Growth inhibition of SV40 transformed wild-type Taspase1 expressing MEF after 2 days by MTT ssay. Type of experiment: functional, cell-based. The conditions noted are these: Mus musculus.
The subject of the next experiment is SF-295. Briefly: Growth inhibition of human SF295 cells expressing Taspase1. It is filed as functional, cell-based.
The test system of experiment [7] is MEF. Briefly: Growth inhibition of SV40 transformed Taspase1 deficient MEF after 2 days by MTT assay. Type of experiment: functional, cell-based. Conditions: Mus musculus. (In general: Formazan colour is commonly taken as a measure of viable cells.)
The subject of a further experiment is SF-539. Briefly: Growth inhibition of human SF539 cells expressing Taspase1. It is filed as functional, cell-based.
The test system of another experiment is Hs-578T. Briefly: Growth inhibition of human Hs578T cells expressing Taspase1. It is filed as functional, cell-based.
A further experiment has as its system SNB-75. Briefly: Growth inhibition of human SNB75 cells expressing Taspase1. Type of experiment: functional, cell-based.
The next experiment relates to MDA-MB-231. Briefly: Growth inhibition of human MDA-MB-231 cells expressing Taspase1. It is filed as functional, cell-based.
The test system of the next experiment is SF-268. Briefly: Growth inhibition of human SF268 cells expressing Taspase1. It is filed as functional, cell-based.

Sequence of Caspase-8 (Homo sapiens) (Q14790 217-374 limits assumed): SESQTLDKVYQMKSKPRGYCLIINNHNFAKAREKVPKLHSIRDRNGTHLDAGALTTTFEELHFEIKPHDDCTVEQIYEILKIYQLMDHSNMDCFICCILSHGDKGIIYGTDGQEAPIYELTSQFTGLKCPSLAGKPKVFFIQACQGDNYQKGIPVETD
Sequence of Caspase-8 (Homo sapiens) (Q14790 385-479 limits assumed): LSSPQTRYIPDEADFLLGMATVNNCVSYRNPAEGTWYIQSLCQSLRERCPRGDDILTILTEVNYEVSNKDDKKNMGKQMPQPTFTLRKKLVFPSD

In the case of `O=C(O)Cc1ccc(Oc2ccc(CC(=O)O)cc2)cc1`, the inhibition entry in [1] was “inactive”.

As for `CC[C@H](C)[C@H](NC(C)=O)C(=O)N[C@@H](CO)C(=O)N[C@@H](CCC(N)=O)C(=O)N[C@@H](CC(C)C)C(=O)N[C@@H](CC(=O)O)C(=O)CCl` (Ac-ISQLD-CH2Cl), the IC50 on Threonine aspartase 1 is greater than 100 µM.

For the compound `O=[As](O)(O)O`, the inhibition entry in [2] was “inactive”.

On to `CC[C@H](C)[C@H](NC(=O)[C@H](CCCCN)NC(C)=O)C(=O)N[C@@H](CO)C(=O)N[C@@H](CCC(N)=O)C(=O)N[C@@H](CC(C)C)C(=O)N[C@H](C=O)CC(=O)O` (Ac-KISQLD-aldehyde), for which the IC50 at Threonine aspartase 1 is greater than 100 µM.

As for `O=[As](O)(O)c1ccc(Cc2ccc([As](=O)(O)O)cc2)cc1`, the “growth inhibition (GI)” value in the experiment on T47D, in the experiment with BT-549, with MCF7, in the experiment with U-251, in the experiment on MEF [6] and in the experiment with SF-295 was “Active” each time. Moreover, the “growth inhibition (GI)” value in the experiment on SF-539, with Hs-578T, in the experiment with SNB-75, in the experiment on MDA-MB-231 and in the experiment with SF-268 was “Active” each time. The inhibition entry in [3] and in [5] was “Active” each time. Besides, the inhibition entry (in experiment [4]; on Caspase-8 (Homo sapiens)) was “inactive” each time. Also, the “growth inhibition (GI)” value with MEF [7] was “inactive”.

The term IC50 denotes the point on the concentration scale where inhibition reaches its midpoint.

The values are drawn from ChEMBL document CHEMBL3991945, “TASPASE1 inhibitors and their uses” (2013).
